Results: ChEMBL document CHEMBL3244130, “A manual method for applying the Hansch approach to drug design” (J Med Chem, 1977)

System: Escherichia coli
Experiment: Antibacterial activity against Escherichia coli
Type: functional
Details: not given
With Cc1ccc(C(=O)NS(=O)(=O)c2ccc(N)cc2)cc1 the “log(1/MIC)” value was 5.4.
In the case of Nc1ccc(S(=O)(=O)NC(=O)c2ccccc2)cc1 [SULFABENZAMIDE], the “log(1/MIC)” value is reported as 5.25.
In the case of CCc1ccc(C(=O)NS(=O)(=O)c2ccc(N)cc2)cc1, the “log(1/MIC)” value is reported as 5.62.
With Cc1cccc(C(=O)NS(=O)(=O)c2ccc(N)cc2)c1 the “log(1/MIC)” value was 5.4.
For CCCc1ccc(C(=O)NS(=O)(=O)c2ccc(N)cc2)cc1, the “log(1/MIC)” value was 5.18.
With COc1ccc(C(=O)NS(=O)(=O)c2ccc(N)cc2)cc1C the “log(1/MIC)” value was 5.25.
With CC(C)c1ccc(C(=O)NS(=O)(=O)c2ccc(N)cc2)cc1 the “log(1/MIC)” value was 5.4.
For N#Cc1ccc(C(=O)NS(=O)(=O)c2ccc(N)cc2)cc1, the “log(1/MIC)” value was 4.05.
With COc1ccc(C(=O)NS(=O)(=O)c2ccc(N)cc2)cc1 the “log(1/MIC)” value was 5.4.
In the case of Nc1ccc(S(=O)(=O)NC(=O)c2ccc([N+](=O)[O-])cc2)cc1, the “log(1/MIC)” value is reported as 4.5.
For Nc1ccc(S(=O)(=O)NC(=O)c2ccc(Cl)cc2)cc1, the “log(1/MIC)” value was 5.1.
For Nc1ccc(S(=O)(=O)NC(=O)c2cccc(C(F)(F)F)c2)cc1, the “log(1/MIC)” value was 4.65.

System: Rattus norvegicus
Experiment: Antiinflammatory activity in rat pleurisy model assessed as 10X ratio of mean pleural exudate volumes at 1 mmol/kg, po relative to 1 mmol/kg aspirin
Type: functional
Details: not given
With O=C(O)CCn1nnc(-c2ccccc2)n1 the Activity_index was 8.2.
COc1ccc(-c2nnn(CCC(=O)O)n2)cc1 showed an Activity_index of 4.9.
Molecule Cc1cccc(-c2nnn(CCC(=O)O)n2)c1 has an Activity_index of 7.9.
With O=C(O)CCn1nnc(-c2cccc(Br)c2)n1 the Activity_index was 11.2.
With O=C(O)CCn1nnc(-c2cccc(C(F)(F)F)c2)n1 the Activity_index was 5.7.
In the case of O=C(O)CCn1nnc(-c2cc(Cl)cc(Cl)c2)n1, the Activity_index is reported as 11.2.
Work on O=C(O)CCn1nnc(-c2cccc(Cl)c2)n1 yielded an Activity_index of 11.2.
For Cc1ccc(-c2nnn(CCC(=O)O)n2)cc1, the Activity_index was 3.1.
O=C(O)CCn1nnc(-c2ccc(Cl)cc2)n1 gave an Activity_index of 5.9.
In the case of O=C(O)CCn1nnc(-c2ccc(Cl)c(Cl)c2)n1, the Activity_index is reported as 6.2.
Work on Nc1cccc(-c2nnn(CCC(=O)O)n2)c1 yielded an Activity_index of 0.3.

Species on record: Oryctolagus cuniculus
Experiment: Reversible inhibition of guanine deaminase in rabbit liver at pH 7.4
Details: not given
CCOc1ccc(-n2cnc3c(O)nc(N)nc32)cc1 showed a log(1/C) of 7.01.
Nc1nc(O)c2ncn(-c3ccc(OCCCc4ccccc4)cc3)c2n1 gave a log(1/C) of 7.25.

System: not listed separately
Experiment: Inhibition of alcohol dehydrogenase (unknown origin) assessed as dissociation constant for the complex of enzyme and DPNH
Type: protein assay
Details: Homo sapiens
With CC(C)c1ccc(C(N)=O)cc1 the log K was -1.7.
For NC(=O)c1ccccc1, the log K was -2.72.
For Cc1ccc(C(N)=O)cc1, the log K was -1.78.
Work on COc1ccc(C(N)=O)cc1 yielded a log K of -2.2.
NC(=O)c1ccc(Cl)cc1 gave a log K of -1.93.

System: not listed separately
Experiment: Uncoupling activity of oxidative phosphorylation in rat liver mitochondria
Type: functional
Details: not given
For O=C1c2ccccc2C(=O)C1c1ccccc1, the log(1/C50) was 3.74.
In the case of Cc1ccc(C2C(=O)c3ccccc3C2=O)cc1, the log(1/C50) is reported as 4.1.
CC(C)c1ccc(C2C(=O)c3ccccc3C2=O)cc1 showed a log(1/C50) of 4.87.
For COc1ccc(C2C(=O)c3ccccc3C2=O)cc1, the log(1/C50) was 3.75.
With O=C1c2ccccc2C(=O)C1c1ccc(Cl)cc1 the log(1/C50) was 4.2.
Molecule CC(C)(C)c1ccc(C2C(=O)c3ccccc3C2=O)cc1 has a log(1/C50) of 5.03.

System: not listed separately
Experiment: Inhibition of carbonic anhydrase (unknown origin)
Details: Homo sapiens
Molecule NS(=O)(=O)c1ccc([N+](=O)[O-])c(C(F)(F)F)c1 has a log1/Ki of 1.85.
For NS(=O)(=O)c1ccccc1, the log1/Ki was 0.22.
With NS(=O)(=O)c1ccc(Cl)cc1 the log1/Ki was 0.72.
In the case of Cc1ccc(S(N)(=O)=O)cc1, the log1/Ki is reported as 0.42.
For NS(=O)(=O)c1ccc(Cl)c(Cl)c1, the log1/Ki was 1.4.
COc1ccc(S(N)(=O)=O)cc1 showed a log1/Ki of 0.35.

Species on record: Rattus norvegicus
Experiment: Hypoglycemic activity in rat assessed as change in blood glucose level after 4 hrs
Type: functional
Set-up: concentration or dose not given beside the values
Details: not given
Work on O=C(C=P(c1ccccc1)(c1ccccc1)c1ccccc1)c1ccc(Cl)c(Cl)c1 yielded an Activity of 2%.
Work on COc1cccc(C(=O)C=P(c2ccccc2)(c2ccccc2)c2ccccc2)c1 yielded an Activity of -42%.
For Cc1cccc(C(=O)C=P(c2ccccc2)(c2ccccc2)c2ccccc2)c1, the Activity was -30%.
Work on O=C(C=P(c1ccccc1)(c1ccccc1)c1ccccc1)c1ccccc1 yielded an Activity of -24%.
For O=C(C=P(c1ccccc1)(c1ccccc1)c1ccccc1)c1cccc(Cl)c1, the Activity was -42%.
Molecule COc1ccc(C(=O)C=P(c2ccccc2)(c2ccccc2)c2ccccc2)cc1 has an Activity of -4%.
With O=C(C=P(c1ccccc1)(c1ccccc1)c1ccccc1)c1cccc(C(F)(F)F)c1 the Activity was -22%.
In the case of Cc1ccc(C(=O)C=P(c2ccccc2)(c2ccccc2)c2ccccc2)cc1, the Activity is reported as -2%.
O=C(C=P(c1ccccc1)(c1ccccc1)c1ccccc1)c1ccc(Cl)cc1 showed an Activity of -21%.

System: Plasma
Experiment: Fibrinolytic activity in human plasma assessed as dissolution of standard clot measured with in 24 hrs
Type: functional
Details: not given
In the case of COc1ccc(C#C[C@H]2C[C@@H]2C(=O)O)cc1, the “log(1/C)” value is reported as 1.7.
For O=C(O)[C@H]1C[C@@H]1C#Cc1ccc(Cl)cc1, the “log(1/C)” value was 1.92.
In the case of O=C(O)[C@H]1C[C@@H]1C#Cc1ccccc1, the “log(1/C)” value is reported as 1.7.
In the case of Cc1ccc(C#C[C@H]2C[C@@H]2C(=O)O)cc1, the “log(1/C)” value is reported as 1.82.
